From patent US7238347B2, “Suicidal mutant Leishmania vaccine” (priority 2005, dated 2007)

What was measured:
Leishmania donovani DD8 = test: Hamster vaccination, Experiment 2, challenge with L. donovani; assay type: in vivo, Syrian Golden hamsters
Excerpt: The values for body weights were from all animals available at specific time points. Two animals were sacrificed per group per time point for assessing spleen weights and parasite loads;
Impression smears (Left panel) of cut spleens were Geimsa-stained and examined microscopically under oil immersion lens to enumerate amastigotes per 1,000 splenic nuclei as a measure of parasite loads (Right Panel). Note: Parasite loads decrease precipitously after day 45 in contrast to the control groups. The data are consistent with the data for animal body weights and spleen weights; and
The 2nd experiment was designed to verify and to strengthen the results of the 1st experiment by including 2 additional control groups. One is to treat animals with ALA alone so as to eliminate the potential contribution of this metabolite to the outcome observed. Another is to include pbgd single transfectants (ST) as an additional non-porphyric control to ascertain that the prophylactic effects observed are independent of factors specific to DT or L. amazonensis infection alone. There is some indication of this in the 1st experiment for “vaccination” of hamsters with the DT−ALA+LD group whose splenic parasite loads remained high, but the amastigotes look degenerative (FIG. 20). Except for “vaccination” on the back and illumination with white light, experimental conditions otherwise followed those in the 1st as follows:
A total of 50 Syrian Golden hamsters (40-45 gm) were used 10 per group for each of the following experimental and control groups:
Day 6 (Sep. 28, 2004): Harvest and resuspend cells for inoculation intradermally to a shaved area (˜2 cm×2 cm) on the back of the animals as follows:
Days 9-12 (Oct. 1-4, 2004): inject the same site of each animal daily 4× with 20 ul […] ALA solution
Days 13-17 (Oct. 5-9, 2004): Illuminate caged animals from 9 AM to 5 PM daily for five days under white light [Four bulbs of 100 W (Phillips)+2 tube lights of 40 W in an AC room of 6 ft×6 ft×10 ft] 2 ft above, keeping a constant temperature of 26-27° C.
[…] (Oct. 25, 2004): Challenge 9 animals of each group with 107 DD8 strain of L. donovani amastigotes/animal by intracardiac route.
Day 78 (Dec. 9, 2004): Parasitological/immunological evaluations-45 days post-challenge (FIG.).
Day 93 (Dec. 24, 2004): Parasitological/immunological evaluations-60 days post-challenge (FIG.).
Day 147 (Feb. 16, 2005): survivors left of a total of 4 animals 114 days after challenge, excluding 6 sacrificed for experimentation on days 0, 45, and 60.

[1] = system: hamster lymph node mononuclear cells; test: Proliferation of lymph node cells to Con-A and Leishmania soluble antigens, tritiated thymidine; assay type: cell-based; conditions: 45 days after challenging infection, 20 ug/ml antigen
Experimental: Lymph nodes of hamsters from experimental and control groups, as indicated, were used 45 days after challenging infection to prepare mononuclear cell-suspension (10^6/ml). Aliqouts of 100 ul were cultured in 96 well flat bottom tissue culture plates (Nunc, Denmark). 100 ul of Conconavalin A or soluble L. donovani promastigote antigens were added to each well, giving a final concentration of 10 ug/ml and 20 ug/ml, respectively. Cultures were prepared in triplicate for each sample and incubated at 37° C. and 5% CO2 for 3 days and 5 days for Con-A treated and antigen-treated cells, respectively. Eighteen hours prior to termination of incubation of cultures, 0.5 uCi of tritiated-thymidine was added to each well. Cells were harvested on to glass fiber mats (Whatman) for liquid scintillation counting.

[2] = system: J774A1 macrophages infected with alad/pbgd double transfectants; test: Intracellular transgenic amastigotes and macrophages per culture after ALA; assay type: cell-based, mouse; conditions: 1-2 mM ALA
Experimental: J774A1 cells were infected in vitro with alad/pbgd double transfectants of L. amazonensis at a promastigote-to-macrophage ratio of 10:1. Infected cultures were maintained at 35° C. with daily medium renewal for 42 days. Cultures were split equally into two, one with and the other without the addition of 1-2 mM ALA 3 times on days 2, 26 and 40 post-infection (arrows). The total number of intracellular amastigotes (left) and macrophages (right) per culture were estimated at the time points indicated, as described (Chang, 1980). Note: Decrease of intracellular amastigotes in number after the 1st 2 ALA treatments.
Intra-macrophage amastigotes are lysed selectively when rendered uroporphyric in situ, as determined by quantitative analysis of parasites and macrophages in such infected cultures (FIG. 15). This observation further strengthens the use of porphyric Leishmania as a live model for vaccine delivery. We observed this by using macrophages infected with the double transfectants. The infected cultures were split equally into 2 identical sets. In a total period of 42 days, one set received 3 separate ALA treatments, each pulsed for ˜24 hrs, at different time points after infection, while the other set received no treatments (see legend to FIG. 15 for experimental conditions). […]

For NCC(=O)CCC(=O)O [ALA, delta-aminolevulinate], the “survivors left of a total of 4 animals” value (Leishmania donovani DD8; 114 days after challenge) was 0/4, the immunoprophylactic effect (Leishmania donovani DD8; ALA treatment alone) was “ineffective” and the “splenic parasite loads, amastigotes in impression smears” value (Leishmania donovani DD8; day 45 to day 60 post challenge) was “abundant in number”. For the same compound, the “splenomegaly by spleen weight” value (Leishmania donovani DD8; days 45 and 60 post-challenge) was “most pronounced”, the “lymph node cell response to LSA” value [1] was “virtually no response” and the “growth of J774A1 macrophages” value [2] was “unaffected”.
